Experimental data reported in the METLIN SMRT retention time set (Domingo-Almenara et al. 2019).

Test: gradient 5% acetonitrile 3 min, to 50% in 2 min, to 85% in 15 min, held 3 min, 100 µL/min
Settings: column: Zorbax Extend-C18 2.1 x 50 mm; eluents: water / acetonitrile, 0.1% formic acid
Method in brief: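 Each retention time is based on an adduct peak selected computationally and verified by manual inspection. Measurements used HPLC–quadrupole time-of-flight mass spectrometry in positive and negative ionization mode on mixtures of ~100 pure standards. Chromatography ran on a Zorbax Extend-C18 column (2.1 × 50 mm, 1.8 μm) at 100 μL/min with water and acetonitrile, each containing 0.1% formic acid, and dead and dwell volumes of 40 μL and 900 μL.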

| SMILES | RP-LC retention time |
| --- | --- |
| CN(CC1(C)CCOCC1)C(=O)Cc1ccccc1Cl | 818 s |
| COc1ccc(-c2noc(-c3nc(C4CC4)no3)n2)cc1 | 1090 s |
| CSc1ccc(NC(=O)c2ccccc2C(F)(F)F)nn1 | 765 s |
| O=C(NCc1ccc(F)cc1F)c1ccc2c(c1)nc1n2CCN(Cc2ccccc2)C1=O | 795 s |
| COc1ccc(-c2nc(NC3CCCC3)c3ccccc3n2)cc1 | 825 s |
| Cc1ccc(C)c(N2CCN(C(=O)c3[nH]c(C)c(S(=O)(=O)N4CCOCC4)c3C)CC2)c1 | 928 s |
| CCN1c2ccccc2C(=O)NC12CCN(C(=O)Cc1ccccc1C)CC2 | 849 s |
| CC1(C(=O)N2CCCc3ccccc32)Cc2ccccc2C(=O)O1 (centres undefined) | 841 s |
| Cc1cc2nn(CC(=O)Nc3ccc(C)c(C)c3)c(=O)n2c(N2CCCC2)n1 | 1010 s |
| CC(C)(C)OC(=O)NC1[C@H]2CNC[C@@H]12 (some centres undefined) | 609 s |
| CCOC(=O)c1c(C)oc2nc(C)nc(N3CCN(Cc4ccccc4)CC3)c12 | 583 s |
| CCn1cc(C(=O)NCCn2c(C)cnc2C2CCC2)cn1 | 557 s |
| CCn1cc(C(=O)Nc2ccc(F)cc2)c(S(=O)(=O)N2CCSCC2)n1 | 976 s |
| Cn1nc(-c2nc(C3CC3)no2)c2c1CCN(C(=O)c1cc(F)ccc1F)C2 | 860 s |
| O=C(C1Sc2ccccc2N(CC(=O)N2CCc3ccccc32)C1=O)N1CCCCCC1 (centres undefined) | 987 s |
| CC(C)C(=O)Nc1ccc2ncnc(N3CCCC3)c2c1 | 591 s |
| CC1=C(c2ccccc2)S(=O)(=O)N=C1N1CCCN(C(=O)C2CCC2)CC1 | 769 s |
| CC1=C(c2cccc(Cl)c2)S(=O)(=O)N=C1N1CCCN(C(=O)NC(C)C)CC1 | 802 s |
| COc1cc(OC)c(NC(=O)NCC2(N3CCOCC3)CCOC2)cc1Cl (centres undefined) | 612 s |
| C=Cc1ccc(CN2C(=O)N(c3ccc(F)cc3)c3ncccc3S2(=O)=O)cc1 | 886 s |
| CCCNC(=O)C1CCN(c2ccc(SCC(=O)Nc3c(C)cc(C)cc3C)nn2)CC1 | 657 s |

| SMILES | RP-LC retention time |
| --- | --- |
| O=C(Cn1nc2c(cc1=O)CCCC2)NCCc1c[nH]c2ccc(F)cc12 | 753 s |
| CCOc1ccc(NC(=O)Cn2ncc3c(c2=O)N(C2CC2)C(=O)CS3)cc1 | 671 s |
| O=C(c1ccsc1)N1CCN(c2cc(-c3ccc(Cl)cc3)[nH]n2)CC1 | 809 s |
| COc1ccccc1CCC(=O)N1CCc2cc(-c3ccno3)ccc21 | 1040 s |
| COc1cccc(C(=O)NC2CCN(c3ccc(F)cc3)C2=O)c1 (centres undefined) | 756 s |
| Cc1ccc(CNC(=O)C2CCCN(c3nnc4ccccn34)C2)cc1C (centres undefined) | 708 s |
| Cc1ccc(CNC(=O)C2CCCN(c3nnc4c(Cl)cccn34)C2)o1 (centres undefined) | 704 s |
| COCCn1nnnc1C1CC2(CCOCC2)C(=O)N1CCc1ccc(Cl)cc1 (centres undefined) | 880 s |
| Cc1cc2nn(CC(=O)N3CCc4ccccc43)c(=O)n2c(Nc2ccc(F)cc2)n1 | 1030 s |
| COc1ccc2nc(NC(=O)C3CCN(C(=O)C4Sc5ccccc5NC4=O)CC3)sc2c1 (centres undefined) | 775 s |
| O=C(Nc1nc(-c2ccc(-c3ccccc3)cc2)cs1)c1cccnc1 | 1030 s |
| COc1cc(NC(=O)Cn2cnc3nc(N4CCCC4)ncc3c2=O)cc(OC)c1 | 703 s |
| COCC(C)(O)CNC(=O)C(=O)Nc1cccc(F)c1 (centres undefined) | 675 s |
| O=C(COc1ccccc1)N1CCN(c2cc(-c3ccccc3)[nH]n2)CC1 | 776 s |
| Cc1cc(C(=O)N2CCC(c3noc(-c4ccncc4)n3)C2)nn1C (centres undefined) | 661 s |
| CCc1cc(=O)n(CC(=O)Nc2cc(OC)ccc2OC)c(N2CCOCC2)n1 | 967 s |
| Cc1ccc(C)c(C(=O)N2CCN(c3cc(C)nc(N4CCOCC4)n3)CC2)c1 | 637 s |
| CNC(=O)N1CCC(C2CCN(C(=O)CSC)C2)CC1 (centres undefined) | 608 s |
| O=C(C1CCCN(c2cnc3nccnc3c2)C1)N1CCN(C2CCCCC2)CC1 (centres undefined) | 567 s |
| COc1ccc(OC)c(-c2ccc(=O)n(CC(=O)Nc3ccc(-n4cnnn4)cc3)n2)c1 | 689 s |
| COc1ccc(N2CCN(CCCNC(=O)C3CCCN(c4nccc(C)n4)C3)CC2)cc1 (centres undefined) | 603 s |

| SMILES | RP-LC retention time |
| --- | --- |
| O=C1CCN(C(=O)C2CCN(C(=O)NC3CCCCC3)CC2)CCCCCCN1 | 664 s |
| O=C(c1cccc(C(F)(F)F)c1)N1CCN(c2nc(CN3CCCCC3)cs2)CC1 | 684 s |
| Cc1ccc(NC(=O)Cn2nc(N3CCSCC3)c3ccccc3c2=O)cc1Cl | 970 s |
| Cc1cc(=O)n(CC(=O)Nc2ccc(F)cc2)c(N2CCCCC2)n1 | 635 s |
| Cc1ccc(S(=O)(=O)N2CCC(CN3CCCCCC3)CC2)cc1Cl | 721 s |
| O=C(Nc1nc(C(=O)N2CCN(c3ccccn3)CC2)co1)c1cnccn1 | 517 s |
| OC(c1ccccc1)(c1ccccc1)C1CN2CCC1CC2 (centres undefined) | 733 s |
| CCOCC(=O)N1CCCN(C2=NS(=O)(=O)C(c3ccccc3)=C2C)CC1 | 688 s |
| COc1ccc(OC)c(S(=O)(=O)N2CCCC(C(=O)NC3CC3)C2)c1 (centres undefined) | 710 s |
| CS(=O)(=O)N(C1CCOCC1)C1CN(C(=O)Nc2ccccc2)C1 | 666 s |
| Cc1ccccc1-c1noc(C2CC(=O)N(c3ccc4c(c3)OCO4)C2)n1 (centres undefined) | 718 s |
| CCCCN(C(=O)c1nc(C)n(C2CCN(S(C)(=O)=O)CC2)c1C)c1ccccc1 | 666 s |
| O=C(NCCc1ccccc1)c1nc(Cn2c(=O)oc3ccccc32)no1 | 888 s |
| CN(C)C(=O)c1cc2c(s1)CCC(C(=O)N1CCN(c3ccccc3)CC1)C2 (centres undefined) | 735 s |
| COc1ccc(C(=O)N2CCN(c3nc(CN4CCOCC4)cs3)CC2)cn1 | 580 s |
| CCOc1ccc(NC(=O)CCC2CCCN(c3cc(NC4CC4)ncn3)C2)cc1 (centres undefined) | 692 s |
| Cc1nc2cc(-c3noc(-c4cc(Cl)ccc4Cl)n3)ccc2o1 | 1290 s |
| O=C(NCCCN1CCC(Cc2ccccc2)CC1)C1CCCN(S(=O)(=O)N2CCCCC2)C1 (centres undefined) | 745 s |
| CCCCS(=O)(=O)N1C[C@@H](COC)[C@H](C(=O)NC)C1 | 626 s |

More lines, now with the values ahead:

| RP-LC retention time | SMILES |
| --- | --- |
| 793 s | CCOc1ccccc1NC(=O)Cc1csc2nc(-c3ccc(OC)c(OC)c3)cn12 |
| 1160 s | Cc1ccc(Cn2c(N3CCCC(C(=O)Nc4ccc(Cl)cc4)C3)nc3ccsc3c2=O)cc1 (centres undefined) |
| 876 s | COc1cccc(-c2noc(Cn3ccn(-c4ccc(Cl)cc4)c(=O)c3=O)n2)c1 |
| 1300 s | CC(C)(C)c1csc(-c2csc(S(=O)(=O)NCc3ccc(Br)cc3)c2)n1 |
| 693 s | Cc1nc(-c2noc(-c3ccncc3)n2)cn1CC(=O)NCc1cccc(Cl)c1 |
| 1130 s | CC(C)c1ccc(S(=O)(=O)N2CC=C(c3cn(C)c4ncccc34)CC2)cc1 |
| 1130 s | CCOc1ccc(-n2c(=O)c3sccc3n(Cc3nc(-c4ccc(C)c(C)c4)no3)c2=O)cc1 |
| 1010 s | C=CCN1C(=O)COc2ccc(-c3nc(NC(=O)C(C)(C)C)sc3C)cc21 |
| 889 s | Cc1cc(C(=O)Nc2ccc(F)cc2)nc2ccnn12 |
| 574 s | CCn1cc(S(=O)(=O)N2CC(Cn3c(C)cnc3-c3ccncc3)C2)cn1 |
| 1440 s | Cc1cccc2cc(-c3noc(-c4ccccc4)n3)c(NCCc3ccc(S(N)(=O)=O)cc3)nc12 |
| 690 s | Cc1ccc(NC(=O)Cn2c(C)nc(C)c(C)c2=O)cc1C |
| 730 s | O=C(NCc1ccc(Br)cc1)C1CCCN(c2ccnc(-c3ccc(F)cc3)n2)C1 (centres undefined) |
| 800 s | Cc1ccc(NS(=O)(=O)c2cc3n(c2)CCN(C(C)C)C3=O)c(C)c1 |
| 735 s | Cc1cc(C)c2nc(C)cc(C(=O)NCc3ccc(C)o3)c2c1 |
| 890 s | CC(C)n1cc(S(=O)(=O)Nc2ccc(F)cc2F)c2cccnc21 |
| 987 s | Cc1ccc(NC(=O)c2cnc(-c3ccccc3)nc2-c2ccncc2)c(Br)c1 |
| 1380 s | Cc1ccc(-c2noc(-c3sccc3NC(=O)c3ccnn3C)n2)cc1 |
| 653 s | CN1CC(=O)N(CC(=O)Nc2cccc(C#N)c2)c2ccccc2C1=O |
| 944 s | CC(C)(C)c1ccc(S(=O)(=O)c2nnn(-c3ccc4c(c3)OCCO4)c2N)cc1 |
| 724 s | O=C(NCc1ccc(S(=O)(=O)c2cc(F)cc(F)c2)cc1)c1ccc2nccn2c1 |
| 864 s | O=C(Cn1cccc(-c2nc(-c3ccccc3)no2)c1=O)Nc1ccc(F)cc1F |
| 827 s | COc1ccc(Cn2nc3ccc(S(=O)(=O)N4CCCC4)cn3c2=O)cc1 |
| 838 s | Cc1ccc(N2C(=O)CN(S(C)(=O)=O)CC2(C)C(=O)NCc2ccccc2)c(C)c1 (centres undefined) |
| 808 s | Cc1ccc(Nc2c(-c3ccc(C)cc3)nc3c(C)cccn23)cc1 |
| 899 s | CCc1nc(OCC(=O)Nc2ccc(Cl)cc2F)c2ccccc2n1 |
| 1130 s | O=C1C2N=NN(Cc3nc(-c4cccc(Br)c4)no3)C2C(=O)N1c1ccc2c(c1)CCC2 (centres undefined) |
| 836 s | Cc1ccc(CNC(=O)C2(C)CN(S(C)(=O)=O)CC(=O)N2Cc2ccc(F)cc2)cc1 (centres undefined) |
